Here are results for five compounds from US20090326072A1, “USE OF 2-(2-NITRO-4-TRIFLUOROMETHYLBENZOYL)-l,3- CYCLOHEXANEDIONE IN THE TREATMENT OF PARKINSON'S DISEASE” (priority 2005, published 2009).

Entries after “also recorded” stand apart in the source; their conditions may differ. Read-outs that look alike come from different tables or passages of the source.

In one assay the test system is plasma tyrosine. The assay is described as follows: Plasma tyrosine concentration kinetic profile in the rat following a single oral dose. In kind it is in vivo. The note with it: for Plasma Tyrosine Concentration: single oral dose 10 mg/kg; for Plasma tyrosine: single oral dose 2.0 mg/kg. The method, then: The plasma tyrosine concentration kinetic profile in the rat was determined for each of the HPPD inhibitor test compounds by administering a single oral dose to 10-12 week old male Sprague Dawley rats. Compounds 3.20, 3.13 and 3.26 were dosed at 2 mg/kg in 1% carboxymethylcellulose (1% CMC) vehicle, whilst compounds 3.22, 3.12, 3.15, 3.18, 3.23, 3.21, 3.11, 3.01, 3.24 and 3.25 were administered at 10 mg/kg in 1% CMC.
Blood samples to determine plasma tyrosine concentration were obtained at frequent intervals during the first 24 hours post-dose, and at 48 hours post-dose. These samples were either compared with blood samples obtained from control rats which only received an equivalent volume of the vehicle, 1% CMC, or by comparison with control samples obtained from the rats 1 hour prior to dosing with test the compound. Prior to the analysis of the samples for plasma tyrosine concentration, the blood samples were centrifuged at 1800 g for 10 minutes at 4° C. The plasma was collected and then filtered through a centrifugal micro partition device at 1500 g for 30 minutes at 4° C. The filtered plasma was then divided into two aliquots and stored frozen at −70° C. for subsequent gradient reverse phase high performance liquid chromatographic (HPLC) analysis of plasma tyrosine. Aliquots of plasma were analysed by HPLC using a 250×4.6 mm Hichrom S5ODS2 column at 30° C., eluted with a mobile phase of water/acetonitrile/trifluoroacetic acid (950:50:2 v/v/v) at a flow rate of 1 ml/min. Detection was by a diode array detector at 274 nm. Appropriate tyrosine standards were run alongside the samples for calibration purposes.
The plasma tyrosine concentration kinetic profile for the test compounds 3.20, 3.13 and 3.26 are shown at the time points 1, 2, 4, 6, 12, 24 and 48 hours post-dose in Table 1.1. The data shown are the mean±standard deviation (n=4), except for the 6 hour time point where the data were obtained from n=3 rats for the control and 3.26 groups.
The plasma tyrosine concentration kinetic profile for the test compounds 3.22, 3.12, 3.15, 3.18, 3.23, 3.21, 3.11, 3.01, 3.24 and 3.25 are shown at the time points −1 hour (pre-dose control), 1, 3, 6, 12, 24 and 48 hours post-dose, in Tables 1.2 and 1.3. The data shown are the mean±standard deviation (n=3), except for the −1 hour time point with compound 3.23, where n=2 (Table 1.2), and for the 3 and 6 hour time points with compound 3.21, where n=2 (Table 1.3).

Assay [1] has as its system AMPT rat model of Parkinson's disease. The assay is described as follows: AMPT rat model of Parkinson's disease (catalepsy descent latency and centre rearing counts). In kind it is in vivo. The note with it: for Mean Catalepsy Descent Latency (s) / Mean Centre Rearing Counts: 8 h post AMPT; for reversal of AMPT induced deficits in mean centre rearing counts (in words) / reversal of AMPT induced catalepsy (in words): single oral dose 10 mg/kg, -16 or -1 hours. The method, then:
AMPT is a competitive inhibitor of tyrosine hydroxylase. Rats dosed with >150 mg/kg AMPT develop parkinsonian-like behavior and locomotor deficits (e.g. catalepsy and reduced rearing activity) within hours owing to the depletion of striatal dopamine concentration as a consequence of the reduced flux through the dopamine synthetic pathway. […] Indian J. Exp. Biol. 41, 1264-1268).
The effect was compared with appropriate vehicle control groups (oral vehicle was 1% carboxymethylcellulose; CMC) and a group that received a 150 mg/kg i.p. dose of L-dopa.
Eight hours after AMPT (or vehicle) administration rats were assessed for catalepsy and centre rearing activity. During the catalepsy test, the front paws of the rat were placed over a horizontal bar suspended 9 cm off the floor. The time taken for the rat to get off the bar (descent latency) was measured with a maximum time of 3 minutes being allowed. Centre rearing counts were determined over a 1 hour monitoring period using an automated activity monitoring system (AM1053). This system used an array of infrared beams to determine the activity and mobility of each animal. Each cage had 48 infrared beams, 24 on each of two levels arranged in an 8×16, 1″ (25.4 mm) pitch grid. The lower grid measured horizontal x, y movement, whilst the upper grid measured rearing movement. The activity detector operated by counting the number of times the beams changed from unbroken to broken and then incrementing the relevant counters.
These groups were compared to a positive control group (6) dosed with 225 mg/kg AMPT i.p.+150 mg/kg L-dopa i.p. 6.5 hour post AMPT dose. L-dopa was administered with a peripheral dopa decarboxylase inhibitor (benserazide), at 100 mg/kg i.p.
In a second and third series of experiments, the efficacy of eight other HPPD inhibitor test compounds were assessed in the AMPT rat model of Parkinson's disease (Tables 1.5 & 1.6). Male Sprague-Dawley rats (300-350 g) were administered a single i.p. dose of 225 mg/kg AMPT and a single oral dose of 10 mg/kg of the HPPD inhibitor test compound was administered either 1 or 16 hours prior to (−16 or −1 hours) AMPT administration. Behavioral assessment (catalepsy and centre rearing counts) was conducted 8 hours post AMPT administration. The effect was compared with a vehicle control group and a group receiving AMPT alone.

Assay [2] deals with T1, 4-hydroxyphenyl pyruvate dioxygenase (HPPD) (Rattus norvegicus, UniProt P32755).
T1 construct: rat liver cytosol (2.7 mg of protein/ml incubate); from tissue; host or cells: rat liver (cytosol, 110,000 g supernatant)
T1 sequence (P32755 whole entry): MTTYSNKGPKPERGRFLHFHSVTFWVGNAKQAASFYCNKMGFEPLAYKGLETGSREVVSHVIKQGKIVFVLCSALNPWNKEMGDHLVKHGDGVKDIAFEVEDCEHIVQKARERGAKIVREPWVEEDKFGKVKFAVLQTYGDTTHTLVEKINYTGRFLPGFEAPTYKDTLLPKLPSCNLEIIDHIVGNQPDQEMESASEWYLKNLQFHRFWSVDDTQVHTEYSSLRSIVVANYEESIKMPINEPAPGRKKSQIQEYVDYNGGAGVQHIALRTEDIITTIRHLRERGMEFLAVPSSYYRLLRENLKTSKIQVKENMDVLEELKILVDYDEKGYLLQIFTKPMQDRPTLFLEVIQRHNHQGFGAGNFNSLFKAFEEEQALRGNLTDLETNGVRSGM
The assay is described as follows: Determination of 4-hydroxyphenyl pyruvate dioxygenase (HPPD) enzyme activity in vitro (rate of oxygen consumption, rat liver cytosol). The class given is biochemical. The note with it: for inhibition at 0.1 µM: read-out: % Inhibition at 100 nM. The method, then:
The principle of the assay is that 4-hydroxyphenyl pyruvate dioxygenase (HPPD), an enzyme that participates in the catabolism of tyrosine, catalyses the oxidative decarboxylation and rearrangement of 4-hydroxyphenylpyruvate (HPPA) to homogentisate, with the incorporation of both atoms of molecular oxygen into the product.
Rat liver was homogenised in buffer of the following composition; 0.25 M Sucrose, 5.4 mM EDTA, 20 mM Tris base, pH 7.4, (25% homogenate) using 6 passes of a Potter type homogeniser. The homogenate was then centrifuged at 1,800 g for 10 minutes at 4° C., the pellet was discarded and the supernatant centrifuged at 17,000 g for a further 15 minutes at 4° C. The pellet was then discarded and the supernatant centrifuged at 110,000 g for 80 minutes at 4° C. The supernatant containing the HPPD enzyme from this 110,000 g spin was collected and stored frozen at −70° C. and used in the assays of the test compounds (see below).
Prior to the start of the enzymatic reaction by the addition of HPPA substrate, the enzyme and test compound (inhibitor) were incubated together for 3 minutes.
In cases where the effects of several concentrations of an inhibitor were investigated, an IC50 value (the half-maximal inhibitory concentration of test compound) was determined by plotting the data using a non-linear regression curve-fitting program using a GraphPad Prism™ software package.
Data are expressed as mean values from two experiments except where indicated. Where appropriate the values are expressed as the mean±standard deviation.

The mark [3] stands for this setting: Table 1.5: 225 mg/kg AMPT i.p. + 10 mg/kg oral at -16 hours.
The mark [4] stands for this setting: Table 1.6: 225 mg/kg AMPT i.p. + 10 mg/kg oral at -16 hours.
The mark [5] stands for this setting: 100 nM test compound, rat liver cytosol, 3 min pre-incubation.
Setting [6] is: Table 1.6: 225 mg/kg AMPT i.p. + 10 mg/kg oral at -1 hour.

For orientation: inhibition means the percentage by which the read-out fell short of the control. In the case of `Cc1cc(C(=O)C2=C([O-])CCCC2=O)c(C)c2c1S(=O)(=O)CCC21OCCO1.[K+]` [Compound 3.11], the “Plasma Tyrosine Concentration” value with plasma tyrosine (1 hour post-dose) amounted to 193 ± 22.9 nmol/mL; with plasma tyrosine (3 hours post-dose), 338 ± 48.9 nmol/mL; in the assay with plasma tyrosine (6 hours post-dose) it was 551 ± 80.7 nmol/mL; in the assay with plasma tyrosine (12 hours post-dose), 1041 ± 106.0 nmol/mL; with plasma tyrosine (24 hours post-dose) it was 2125 ± 65.8 nmol/mL; in the assay with plasma tyrosine (48 hours post-dose) it was 993 ± 260.6 nmol/mL. Moreover, the “Mean Catalepsy Descent Latency (s)” value in assay [1] (setting [3]) is recorded as 9 ± 2.7^+++ s. For the same compound, the “Mean Centre Rearing Counts” value in assay [1] (setting [3]) stood at 303 ± 53 counts. In assay [1], the “reversal of AMPT induced deficits in mean centre rearing counts (in words)” value (from here on “reversal of AMPT induced deficits”) is given as “either partially or completely reversing”. Moreover, the “reversal of AMPT induced catalepsy (in words)” value in assay [1] (10 mg/kg) was “substantially reversed; also recorded: effective in reversing”. The inhibition at 0.1 µM in assay [2] worked out at 9%. In addition, the inhibition at 0.3 µM in assay [2] (read-out: % inhibition at 300 nM) worked out at 45%.

As to `CCn1ncc(C(=O)c2ccc(S(C)(=O)=O)c(OCCOC)c2Cl)c1O` [Compound 3.12], the “Plasma Tyrosine Concentration” value in the assay with plasma tyrosine (1 hour post-dose) was 168 ± 20.1 nmol/mL; in the assay with plasma tyrosine (3 hours post-dose), 289 ± 35.6 nmol/mL; with plasma tyrosine (6 hours post-dose), 451 ± 72.7 nmol/mL; with plasma tyrosine (12 hours post-dose), 969 ± 65.2 nmol/mL; in the assay with plasma tyrosine (24 hours post-dose) it was 1543 ± 91.1 nmol/mL; in the assay with plasma tyrosine (48 hours post-dose), 114 ± 8.0 nmol/mL. For the same compound, in assay [1] (setting [4]), the “Mean Catalepsy Descent Latency (s)” value is given as 16 ± 4.2^+++ s. In addition, the “Mean Centre Rearing Counts” value in assay [1] (setting [4]) stood at 211 ± 65 counts. Moreover, the “reversal of AMPT induced deficits” value in assay [1] is “either partially or completely reversing”. The “reversal of AMPT induced catalepsy (in words)” value in assay [1] (10 mg/kg) is “substantially reversed; also recorded: effective in reversing”. In addition, the inhibition at 0.1 µM in assay [2] (setting [5]) was found to be 40%.

`CS(=O)(=O)c1cc(C(F)(F)F)ccc1C(=O)C(C#N)C(=O)C1CC1` (centres unmarked) [Compound 3.15]: the “Plasma Tyrosine Concentration” value is 177 ± 21.7 nmol/mL with plasma tyrosine (1 hour post-dose); 299 ± 18.8 nmol/mL in the assay on plasma tyrosine (3 hours post-dose); 458 ± 29.4 nmol/mL with plasma tyrosine (6 hours post-dose); 671 ± 119.7 nmol/mL with plasma tyrosine (12 hours post-dose); 228 ± 76.6 nmol/mL with plasma tyrosine (24 hours post-dose); 117 ± 11.3 nmol/mL in the assay on plasma tyrosine (48 hours post-dose). Moreover, in assay [1] (setting [6]), the “Mean Catalepsy Descent Latency (s)” value is 23 ± 8.0^+++ s. In addition, the “Mean Centre Rearing Counts” value in assay [1] (setting [6]) stood at 199 ± 54 counts. For the same compound, in assay [1], the “reversal of AMPT induced deficits” value is on record as “either partially or completely reversing”. The “reversal of AMPT induced catalepsy (in words)” value in assay [1] (10 mg/kg) is “substantially reversed; also recorded: effective in reversing”. Moreover, the inhibition at 0.1 µM in assay [2] (setting [5]) was found to be 37%.

As for `CS(=O)(=O)c1ccc(C(=O)C2C(=O)CCCC2=O)c(Cl)c1COCC(F)(F)F` [Compound 3.18], the “Plasma Tyrosine Concentration” value was 177 ± 3.5 nmol/mL with plasma tyrosine (1 hour post-dose); 303 ± 3.9 nmol/mL in the assay on plasma tyrosine (3 hours post-dose); 504 ± 29.4 nmol/mL with plasma tyrosine (6 hours post-dose); 1027 ± 62.7 nmol/mL in the assay on plasma tyrosine (12 hours post-dose); 1987 ± 133.0 nmol/mL in the assay with plasma tyrosine (24 hours post-dose); 313 ± 216.6 nmol/mL in the assay with plasma tyrosine (48 hours post-dose). Moreover, the “Mean Centre Rearing Counts” value in assay [1] (setting [3]) is 359 ± 116^+ counts. Also, the “reversal of AMPT induced catalepsy (in words)” value in assay [1] (10 mg/kg) is “substantially reversed; also recorded: effective in reversing”. For the same compound, the “reversal of AMPT induced deficits” value in assay [1] (10 mg/kg) was “reached statistical significance; also recorded: either partially or completely reversing”. Moreover, the inhibition at 0.1 µM in assay [2] was 31%.

Turning to `Cc1c(C(=O)C2C=NN(C)C2=O)ccc(S(C)(=O)=O)c1C1=NOCC1` (centres unmarked) [Compound 3.20], the “Plasma tyrosine” value in the assay on plasma tyrosine (1 hour post-dose) is 169 ± 13.6 nmol/mL; in the assay on plasma tyrosine (2 hours post-dose), 231 ± 30.2 nmol/mL; with plasma tyrosine (4 hours post-dose), 353 ± 50.9 nmol/mL; in the assay on plasma tyrosine (6 hours post-dose), 479 ± 40.0 nmol/mL; in the assay on plasma tyrosine (12 hours post-dose), 796 ± 44.3 nmol/mL; in the assay on plasma tyrosine (24 hours post-dose) it was 745 ± 171.8 nmol/mL. Moreover, in the assay with plasma tyrosine (48 hours post-dose), the “Plasma tyrosine” value came to 96 ± 1.7 nmol/mL. Moreover, the “Mean Catalepsy Descent Latency (s)” value in assay [1] (setting [4]) is reported as 8 ± 1.8^+++ s. For the same compound, the “Mean Centre Rearing Counts” value in assay [1] (setting [4]) is recorded as 409 ± 50^+++ counts. For the same compound, in assay [1] (10 mg/kg), the “reversal of AMPT induced catalepsy (in words)” value was “substantially reversed; also recorded: effective in reversing”. Moreover, the “reversal of AMPT induced deficits” value in assay [1] (10 mg/kg) is “reached statistical significance; also recorded: either partially or completely reversing”. In assay [2], the inhibition at 0.1 µM came to 57%.
